Measured values taken from ChEMBL document CHEMBL3856231 (J Med Chem, 2016).
The source made the active and inactive calls. The calls are words filed in the database; no cut-off is given here.

How the values were obtained:
[1] = Apparent permeability from apical to basolateral side in human Caco2 cells; type: ADME, cell-based; settings: Caco-2
[2] = Drug level in tumor of NPM-ALK expressing human SUP-M2 cells xenografted mouse at 30 mg/kg, po administered as single dose measured at 24 hrs by LC-MS/MS analysis; type: ADME, organism-based, Neoplasm; settings: read-out: Drug uptake
[3] = AUC (0 to infinity) in CD-1 mouse at 1 mg/kg, iv by LC/MS/MS analysis; type: ADME, organism-based; set-up: dose 1 mg/kg, time infinity, route intravenous; settings: in vivo
[4] = Drug level in plasma of FAK expressing human CWR22 cells xenografted Nu/Nu mouse at 55 mg/kg, po administered as single dose measured at 6 hrs by LC-MS/MS analysis; type: ADME, organism-based
[5] = Volume of distribution in CD-1 mouse at 1 mg/kg, iv by LC/MS/MS analysis; type: ADME, organism-based; settings: in vivo
[6] = Drug level in tumor of NPM-ALK expressing human SUP-M2 cells xenografted mouse at 30 mg/kg, po administered as single dose measured at 2 hrs by LC-MS/MS analysis; type: ADME, organism-based, Neoplasm; settings: read-out: Drug uptake
Mus musculus [7] = assay: Inhibition of FAK phosphorylation in human CWR22 cells xenografted in Nu/Nu mouse at 55 mg/kg, po administered as single dose by immunoblot analysis; type: functional, organism-based; settings: TDE = time-dependent effect
[8] = target: Voltage-gated inwardly rectifying potassium channel KCNH2 (Homo sapiens, UniProt Q12809); assay: Inhibition of human ERG
Mus musculus [9] = assay: Inhibition of NPM-ALK phosphorylation in human SUP-M2 cells xenografted in mouse at 30 mg/kg, po administered as single dose measured upto 12 hrs; type: functional, organism-based
CTG-0142 = assay: Antitumor activity against human CTG-0142 cells expressing activated FAK xenografted in mouse assessed as tumor stasis at 55 mg/kg, po bid administered for 28 days measured during compound dosing; type: functional, organism-based
[10] = Half life in cynomolgus monkey at 1 mg/kg, iv by LC/MS/MS analysis; type: ADME, organism-based, Macaca fascicularis; settings: in vivo
[11] = Drug level in plasma of FAK expressing human CWR22 cells xenografted Nu/Nu mouse at 55 mg/kg, po administered as single dose measured at 2 hrs by LC-MS/MS analysis; type: ADME, organism-based
[12] = Cmax in CD-1 mouse at 10 mg/kg, po by LC/MS/MS analysis; type: ADME, organism-based; set-up: dose 10 mg/kg, route oral; settings: in vivo
[13] = (§1) Cytotoxicity against human NCI-H2228 cells expressing EML4-ALK assessed as cell growth inhibition; type: functional, cell-based
NCI-H2228 [14] = assay: as §1; type: functional, cell-based
[15] = Dose normalized AUC in Sprague-Dawley rat at 5 mg/kg, po by LC/MS/MS analysis; type: ADME, organism-based; settings: in vivo
[16] = Half life in CD-1 mouse at 1 mg/kg, iv by LC/MS/MS analysis; type: ADME, organism-based; settings: in vivo
Mus musculus [17] = assay: Toxicity in SCID-Beige mouse xenografted with human HCC827 cells expressing activated FAK assessed as overt toxicity at 30 to 55 mg/kg, po bid administered for 28 days; type: organism-based; settings: in vivo, 672 h
[18] = AUC (0 to 48 hrs) in Sprague-Dawley rat brain at 30 mg/kg, po by LC/MS/MS analysis; type: ADME, organism-based; set-up: dose 30 mg/kg, time < 48 hr, route oral
[19] = Drug level in plasma of NPM-ALK expressing human SUP-M2 cells xenografted mouse at 30 mg/kg, po administered as single dose measured at 24 hrs by LC-MS/MS analysis; type: ADME, organism-based
[20] = Cytotoxicity against human KARPAS299 cells expressing NPM-ALK assessed as cell growth inhibition; type: functional, cell-based; settings: KARPAS-299
Mus musculus [21] = assay: Inhibition of NPM-ALK phosphorylation in human SUP-M2 cells xenografted in mouse at 30 mg/kg, po administered as single dose measured upto 24 hrs; type: functional
[22] = Drug level in plasma of NPM-ALK expressing human SUP-M2 cells xenografted mouse at 30 mg/kg, po administered as single dose measured at 12 hrs by LC-MS/MS analysis; type: ADME, organism-based
SUP-M2 [23] = assay: Antitumor activity against human SUP-M2 cells expressing NPM-ALK xenografted in SCID-Beige mouse assessed as tumor ablation at 55 mg/kg, po qd administered for 12 days measured during compound dosing; type: functional, organism-based
[24] = Clearance in Sprague-Dawley rat at 1 mg/kg, iv by LC/MS/MS analysis; type: ADME, organism-based; settings: in vivo
[25] = Half life in rat liver microsomes by LC/MS/MS analysis; type: ADME
[26] = Tmax in cynomolgus monkey at 10 mg/kg, po by LC/MS/MS analysis; type: ADME, organism-based, Macaca fascicularis; settings: in vivo
NCI-H2228 [27] = assay: Antitumor activity against human NCI-H2228 cells expressing EML4-ALK xenografted in SCID-Beige mouse assessed as reduction in tumor volume at 55 mg/kg, po bid administered for 11 days measured during compound dosing; type: functional, organism-based
[28] = Cmax in Sprague-Dawley rat at 5 mg/kg, po by LC/MS/MS analysis; type: ADME, organism-based; set-up: dose 5 mg/kg, route oral; settings: in vivo
[29] = Oral bioavailability in CD-1 mouse at 10 mg/kg by LC/MS/MS analysis; type: ADME, organism-based; settings: in vivo
SUP-M2 [30] = assay: Induction of apoptosis assessed as caspase 3/7 activation in human SUP-M2 cells expressing NPM-ALK; type: functional, cell-based
[31] = Drug level in plasma of NPM-ALK expressing human SUP-M2 cells xenografted mouse at 30 mg/kg, po administered as single dose measured at 6 hrs by LC-MS/MS analysis; type: ADME, organism-based
[32] = Antitumor activity against human CTG-0785 cells expressing activated FAK xenografted in mouse assessed as tumor growth inhibition at 55 mg/kg, po bid administered for 13 days measured during compound dosing; type: functional; settings: CTG-0785, po, 312 h, read-out: TGI
[33] = Clearance in CD-1 mouse at 1 mg/kg, iv by LC/MS/MS analysis; type: ADME, organism-based; settings: in vivo
[34] = Half life in cynomolgus monkey liver microsomes by LC/MS/MS analysis; type: ADME, Macaca fascicularis
[35] = Antitumor activity against human HCC827 cells expressing activated FAK xenografted in SCID-Beige mouse assessed as incidence of partial tumor regression at 55 mg/kg, po bid administered for 28 days; type: functional
SUP-M2 [36] = assay: Antitumor activity against human SUP-M2 cells expressing NPM-ALK xenografted in po dosed SCID-Beige mouse assessed as reduction in tumor volume administered twice daily for 12 days measured during compound dosing; type: functional, organism-based
[37] = AUC (0 to infinity) in cynomolgus monkey at 1 mg/kg, iv by LC/MS/MS analysis; type: ADME, organism-based, Macaca fascicularis; set-up: dose 1 mg/kg, route intravenous, time infinity; settings: in vivo
[38] = Dose normalized AUC in CD-1 mouse at 10 mg/kg, po by LC/MS/MS analysis; type: ADME, organism-based; settings: in vivo
[39] = Cmax in Sprague-Dawley rat plasma at 30 mg/kg, po by LC/MS/MS analysis; type: ADME, organism-based; set-up: dose 30 mg/kg, route oral
[40] = AUC (0 to 48 hrs) in Sprague-Dawley rat plasma at 30 mg/kg, po by LC/MS/MS analysis; type: ADME, organism-based; set-up: time < 48 hr, dose 30 mg/kg, route oral
IBC = assay: Antitumor activity against human IBC cells xenografted in SCID mouse; type: functional
NCI-H2228 [41] = assay: Antitumor activity against human NCI-H2228 cells expressing EML4-ALK xenografted in SCID-Beige mouse assessed as reduction in tumor volume at 30 mg/kg, po bid administered for 11 days measured during compound dosing; type: functional, organism-based

Sequence of Voltage-gated inwardly rectifying potassium channel KCNH2 (Q12809 whole entry): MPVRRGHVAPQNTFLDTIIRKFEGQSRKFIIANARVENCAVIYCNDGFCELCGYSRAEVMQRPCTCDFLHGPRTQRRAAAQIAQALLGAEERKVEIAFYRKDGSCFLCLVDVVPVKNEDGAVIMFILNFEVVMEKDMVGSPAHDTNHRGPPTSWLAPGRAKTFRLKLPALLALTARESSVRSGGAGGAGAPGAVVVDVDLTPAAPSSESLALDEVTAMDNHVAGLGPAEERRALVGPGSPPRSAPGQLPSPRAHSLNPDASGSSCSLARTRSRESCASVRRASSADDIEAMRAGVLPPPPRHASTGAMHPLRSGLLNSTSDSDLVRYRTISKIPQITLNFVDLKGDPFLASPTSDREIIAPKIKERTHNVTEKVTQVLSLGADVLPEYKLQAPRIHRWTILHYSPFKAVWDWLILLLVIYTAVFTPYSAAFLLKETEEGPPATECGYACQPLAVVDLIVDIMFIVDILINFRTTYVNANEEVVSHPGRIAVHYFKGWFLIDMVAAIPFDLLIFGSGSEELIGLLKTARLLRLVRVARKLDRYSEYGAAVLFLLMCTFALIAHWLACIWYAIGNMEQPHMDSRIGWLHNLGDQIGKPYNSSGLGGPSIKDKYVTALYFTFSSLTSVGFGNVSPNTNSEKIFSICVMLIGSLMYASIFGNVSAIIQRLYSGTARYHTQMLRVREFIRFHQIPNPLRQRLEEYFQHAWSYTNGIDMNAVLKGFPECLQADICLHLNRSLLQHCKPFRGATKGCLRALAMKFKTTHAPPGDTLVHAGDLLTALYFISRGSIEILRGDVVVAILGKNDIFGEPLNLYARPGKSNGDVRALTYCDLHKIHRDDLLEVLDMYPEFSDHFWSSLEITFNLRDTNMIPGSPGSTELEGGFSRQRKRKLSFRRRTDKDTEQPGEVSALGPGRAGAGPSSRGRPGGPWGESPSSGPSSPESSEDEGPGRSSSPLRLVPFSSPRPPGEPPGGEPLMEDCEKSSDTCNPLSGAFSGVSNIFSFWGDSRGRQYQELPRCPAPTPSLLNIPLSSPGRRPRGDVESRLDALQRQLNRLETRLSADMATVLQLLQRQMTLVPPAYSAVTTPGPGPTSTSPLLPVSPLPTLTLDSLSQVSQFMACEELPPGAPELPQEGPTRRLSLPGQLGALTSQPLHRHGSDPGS

CNC(=O)c1ccccc1Nc1nc(Nc2ccc3c(c2OC)CCC[C@H](N2CCN(CCO)CC2)C3)ncc1Cl [CEP-37440]
Papp A→B [1]: > 1 ×10⁻⁶ cm/s | concentration at 24 h [2]: 8200 ng/g | AUC(0-inf) [3]: 1610 ng·h/mL | concentration at 6 h [4]: 3790 ng/mL | Vd [5]: 2.7 L/kg | concentration at 2 h [6]: 6040 ng/g | inhibition (Mus musculus [7]): Tde | IC50 [8]: > 10 µM | inhibition (Mus musculus [9]): Active | Activity (CTG-0142): Active | half-life [10]: 5.4 h | concentration at 2 h [11]: 4130 ng/mL | Cmax [12]: 1530 ng/mL | IC50 [13]: 2.9 µM | growth inhibition (GI) (NCI-H2228 [14]): Dose-dependent effect | AUC/dose [15]: 1672 ng·h/mL | half-life [16]: 3 h | Activity (Mus musculus [17]): Non-Toxic | AUC(0-t) at 48 h [18]: 61600 ng·h/mL | concentration at 24 h [19]: 1160 ng/mL | IC50 [20]: 0.131 µM | inhibition in vivo at 30 mg/kg (Mus musculus [21]): > 85% | concentration at 12 h [22]: 4030 ng/mL | Activity (SUP-M2 [23]): Active | clearance [24]: 3 to 4 mL/min/kg | half-life [25]: 0.667 h | Tmax [26]: 6 h | Activity (NCI-H2228 [27]): Active | Cmax [28]: 1340 ng/mL | bioavailability [29]: 102% | Activity (SUP-M2 [30]): Active | concentration at 6 h [31]: 3360 ng/mL | inhibition in vivo at 55 mg/kg [32]: 70% | clearance [33]: 10 mL/min/kg | half-life [34]: 0.35 h | Activity [35]: 60% | Activity (SUP-M2 [36]): Dose-dependent effect | AUC(0-inf) [37]: 554 ng·h/mL | AUC/dose [38]: 1643 ng·h/mL | Cmax [39]: 2120 ng/g | AUC(0-t) at 48 h [40]: 31500 ng·h/mL | Activity (IBC): Dose-dependent effect | Activity (NCI-H2228 [41]): Active
